From patent US8440836B2, “Heterocyclic alkanol derivatives” (Bayer Intellectual Property GmbH, priority 2010, dated 2013)

Tests used:
Sphaerotheca fuliginea = test: Sphaerotheca test (cucumber)/protective; conditions: cucumber plants, protective spray, 500 ppm active ingredient, evaluation 7 days after inoculation
Experimental: • Solvent: 49 parts by weight of N,N-dimethylformamide • Emulsifier: 1 part by weight of alkylaryl polyglycol ether
To produce an appropriate active ingredient formulation, 1 part by weight of active ingredient is mixed with the specified amounts of solvent and emulsifier, and the concentrate is diluted with water to the desired concentration. To test for protective activity, young cucumber plants are sprayed with the formulation of active ingredient at the stated application rate. 1 day after the treatment, the plants are inoculated with a spore suspension of Sphaerotheca fuliginea. The plants are then placed in a greenhouse at 70% relative air humidity and a temperature of 23° C. Evaluation follows 7 days after the inoculation.

[1] = logP by HPLC (EEC Directive 79/831 Annex V.A8); assay type: physicochemical; conditions: HPLC reversed-phase C18, method [a]: LC-MS, pH 2.7, 0.1% aqueous formic acid / acetonitrile, gradient 10% to 95% acetonitrile; for chromatographic logP: reversed-phase C18 HPLC column
Septoria tritici = Septoria tritici test (wheat)/protective; assay type: in vivo; conditions: wheat plants, protective spray, 500 ppm active ingredient, evaluation 21 days after inoculation
Puccinia triticina = Puccinia triticina test (wheat)/protective; assay type: in vivo; conditions: wheat plants, protective spray, 500 ppm active ingredient, evaluation 8 days after inoculation
From the text: Evaluation follows 8 days after the inoculation.

[2] = system: Blumeria graminis f.sp. hordei; test: Blumeria graminis test (barley)/protective; assay type: in vivo; conditions: barley plants, protective spray, 500 ppm active ingredient, evaluation 7 days after inoculation
Leptosphaeria nodorum = Leptosphaeria nodorum test (wheat)/protective; assay type: in vivo; conditions: wheat plants, protective spray, 500 ppm active ingredient, evaluation 8 days after inoculation

SMILES	efficacy (Sphaerotheca fuliginea)	logP [1]	also measured
CC(C)(C)C(O)(COc1ccc(C2CCCC2)cc1)c1cncs1 (centres unmarked) [Compound 80]	94%	logP 4.78^[a]; [M + H]^+ = 346	–
CC1(C(O)(COc2cccc([N+](=O)[O-])c2)c2cncs2)CC1 (centres unmarked) [Compound 45]	–	logP 2.62^[a]; [M + H]^+ = 321	–
CC(C)(C)C(O)(COc1ccc(Cl)cc1)Cc1cncs1 (centres unmarked) [Compound 64]	100%	logP 3.49^[a]; [M + H]^+ = 326	–
CC(C)(C)C(O)(CCc1ccc(Cl)cc1)Cc1cncs1 (centres unmarked) [Compound 18]	95%	–	–
CC(C)[Si](c1ncc(C(O)(Cc2ccccc2Cl)C2(Cl)CC2)o1)(C(C)C)C(C)C (centres unmarked) [Compound 68]	–	logP 7.18^[a]; [M + H]^+ = 455	–
CC(C)(C)C(O)(Cc1ccc(F)cc1)c1cncs1 (centres unmarked) [Compound 48]	–	–	chromatographic logP [1]: 2.91
CC(C)(C)C(O)(COc1ccc(-c2ccc(C(F)(F)F)cc2)cc1)c1cncs1 (centres unmarked) [Compound 30]	–	logP 4.62^[a]; [M + H]^+ = 422	–
CC(C)(C)C(O)(COc1ccc(SC(F)(F)Cl)cc1)c1cncs1 (centres unmarked) [Compound 58]	–	logP 4.23^[a]; [M + H]^+ = 394	–
CC(C)C(O)(COc1ccc(Br)cc1)c1cncs1 (centres unmarked) [Compound 22]	96%	–	–
CC(C)(C)C(O)(COc1ccc(-c2ccc(Cl)cc2)cc1)c1cncs1 (centres unmarked) [Compound 36]	98%	logP 4.55^[a]; [M + H]^+ = 388	–
CC(CF)(CF)C(O)(COc1ccc(Cl)cc1)Cc1cncs1 (centres unmarked) [Compound 67]	95%	logP 3.04^[a]; [M + H]^+ = 362	–
CCN(C)C=Nc1ccc(CCC(O)(c2cncs2)C(C)(C)C)cc1 (centres unmarked) [Compound 78]	–	logP 1.33^[a]; [M + H]^+ = 360	–
CC(C)(C)C(O)(COc1cccc(Oc2ccccc2)c1)c1cncs1 (centres unmarked) [Compound 43]	–	logP 3.98^[a]; [M + H]^+ = 370	–
CC1(C(O)(COc2ccccc2Br)c2cncs2)CC1 (centres unmarked) [Compound 24]	83%	–	–
CC(C)(C)C(O)(COc1ccc(-c2ccc(I)cc2)cc1)c1cncs1 (centres unmarked) [Compound 19]	–	logP 4.89^[a]; [M + H]^+ = 480	–
CC(CF)(CF)C(O)(COc1ccc(Cl)cc1)Cc1cnc(Cl)s1 (centres unmarked) [Compound 65]	–	logP 3.94^[a]; [M + H]^+ = 397	–
CC(C)(C)C(O)(COc1ccc(-c2ccc(C#N)cc2)cc1)c1cncs1 (centres unmarked) [Compound 51]	94%	logP 3.46^[a]; [M + H]^+ = 379	–
CC(C)(C)C(O)(CCc1ccc(Br)cc1)c1cncs1 (centres unmarked) [Compound 72]	100%	logP 3.69^[a]; [M + H]^+ = 354, 356	–
CC(CF)(CF)C(O)(Cc1ccccc1Cl)c1cncs1 (centres unmarked) [Compound 46]	–	logP 2.78^[a]; [M + H]^+ = 332	–
CC(C)(C)C(O)(COc1ccc(Cl)cc1)Cc1cnc(Cl)s1 (centres unmarked) [Compound 61]	–	logP 4.68^[a]; [M + H]^+ = 360	–
CC(C)(C)c1ccc(CCC(O)(c2cncs2)C(C)(C)C)cc1 (centres unmarked) [Compound 77]	–	logP 1.98^[a]; [M + H]^+ = 333	–
CC(C)(C)C(O)(CCc1ccc(Cl)cc1)c1cnco1 (centres unmarked) [Compound 71]	–	logP 3.45^[a]; [M + H]^+ = 294	–

SMILES	efficacy (Sphaerotheca fuliginea)	logP [1]	also measured
CC(C)(C)C(O)(COc1ccc(I)cc1)Cc1cnc(Cl)s1 (centres unmarked) [Compound 62]	–	logP 5.12^[a]; [M + H]^+ = 452	–
CC(C)(C)C(O)(COc1ccc(Oc2ccc(C(F)(F)F)cc2)cc1)c1cncs1 (centres unmarked) [Compound 32]	96%	logP 4.63^[a]; [M + H]^+ = 438	–
CC(C)C(O)(COc1ccc(SC(F)(F)F)cc1)c1cncs1 (centres unmarked) [Compound 17]	93%	–	–
OC(COc1ccc(I)cc1)(c1cncs1)C1(C(F)(F)F)CC1 (centres unmarked) [Compound 81]	–	logP 3.59^[a]; [M + H]^+ = 456	–
CC1(C(O)(COc2ccc(I)cc2)c2cncs2)CCCCC1 (centres unmarked) [Compound 25]	100%	logP 4.53^[a]; [M + H]^+ = 444	efficacy (Septoria tritici): 86%; efficacy (Puccinia triticina): 78%
COc1cc(-c2ccccc2)ccc1OCC(O)(c1cncs1)C(C)(C)C (centres unmarked) [Compound 49]	–	logP 4.02^[a]; [M + H]^+ = 384	–
CC(C)(C)C(O)(COc1ccc(-c2ccc(Br)cc2)cc1)c1cncs1 (centres unmarked) [Compound 52]	100%	logP 4.71^[a]; [M + H]^+ = 432/434	–
OC(COc1ccc(Br)cc1)(c1cncs1)C1(C(F)(F)F)CC1 (centres unmarked) [Compound 82]	–	logP 3.43^[a]; [M + H]^+ = 408/410	–
CC1(C(O)(COc2cccc(I)c2)c2cncs2)CC1 (centres unmarked) [Compound 26]	75%	logP 3.41^[a]; [M + H]^+ = 402	–
CC(C)(C)C(O)(COc1ccc(Oc2ccc(F)cc2)cc1)c1cncs1 (centres unmarked) [Compound 38]	98%	logP 4.03^[a]; [M + H]^+ = 388	–
OC(Cc1cnc(I)s1)(Cc1ccccc1Cl)C1(Cl)CC1 (centres unmarked) [Compound 39]	100%	–	efficacy [2]: 90%
CC1(C(O)(COc2ccc(Cl)cc2)c2cncs2)CCCCC1 (centres unmarked) [Compound 34]	99%	logP 4.25^[a]; [M + H]^+ = 352	–
CC(C)(C)C(O)(CCc1ccc(SC(F)(F)F)cc1)c1cncs1 (centres unmarked) [Compound 6]	100%	–	–
CC(C)(C)C(O)(CCc1ccc(OC(F)(F)F)cc1)c1cncs1 (centres unmarked) [Compound 74]	100%	logP 3.93^[a]; [M + H]^+ = 360	–
CC(CF)(CF)C(O)(COc1ccc(Cl)cc1)c1cncs1 (centres unmarked) [Compound 9]	95%	logP 2.94^[a]; [M + H]^+ = 348	–
CC(C)(C)C(O)(COc1ccc(OC(F)(F)F)cc1)c1cncs1 (centres unmarked) [Compound 20]	88%	–	efficacy [2]: 100%; efficacy (Leptosphaeria nodorum): 100%; efficacy (Septoria tritici): 100%; efficacy (Puccinia triticina): 100%
CC(C)(C)C(O)(CCc1ccc(Cl)cc1)c1cncs1 (centres unmarked) [Compound 5]	100%	–	–
CC(C)(C)C(O)(COc1ccc(Oc2ccc(Br)cc2)cc1)c1cncs1 (centres unmarked) [Compound 28]	95%	logP 4.66^[a]; [M + H]^+ = 448/450	–
CC(C)(C)C(O)(CCc1ccc(N)cc1)c1cncs1 (centres unmarked) [Compound 76]	–	logP 1.16; [M + H]^+ = 291	–
CC(C)(C)c1ccc(OCC(O)(c2cncs2)C(C)(C)C)cc1 (centres unmarked) [Compound 40]	90%	logP 4.39^[a]; [M + H]^+ = 334	–
CC(CF)(CF)C(O)(COc1ccc(Br)cc1)c1cncs1 (centres unmarked) [Compound 8]	94%	logP 3.02^[a]; [M + H]^+ = 392/394.	efficacy [2]: 89%
OC(Cc1ccccc1Cl)(c1cncs1)C1(F)CC1 (centres unmarked) [Compound 11]	70%	logP 2.64^[a]; [M + H]^+ = 298	efficacy [2]: 78%

SMILES	efficacy (Sphaerotheca fuliginea)	logP [1]	also measured
OC(Cc1ccccc1Cl)(c1cncs1)C1(Cl)CC1 (centres unmarked) [Compound 7]	83%	–	–
CC(C)(C)C(O)(COc1ccc(Oc2ccc(Cl)cc2)cc1)c1cncs1 (centres unmarked) [Compound 29]	98%	logP 4.50^[a]; [M + H]^+ = 404	–
CC(CF)(CF)C(O)(Cc1ccccc1F)c1cncs1 (centres unmarked) [Compound 47]	–	logP 2.47^[a]; [M + H]^+ = 316	–
CC(C)[Si](c1ncc(C(O)(CCc2ccc(Cl)cc2)C(C)(C)C)o1)(C(C)C)C(C)C (centres unmarked) [Compound 70]	–	logP 7.36^[a]; [M + H]^+ = 451	–
CC(C)(C)C(O)(COc1ccc(C2CCCCC2)cc1)c1cncs1 (centres unmarked) [Compound 37]	100%	logP 5.21^[a]; [M + H]^+ = 360	–
OC(COc1ccc(Cl)cc1)(c1cncs1)C1(Cl)CC1 (centres unmarked) [Compound 16]	78%	–	–
OC(Cc1ccccc1Cl)(c1cnco1)C1(Cl)CC1 (centres unmarked) [Compound 69]	–	logP 2.88^[a]; [M + H]^+ = 299	–
OC(Cc1cnc(Cl)s1)(Cc1ccccc1F)C1(Cl)CC1 (centres unmarked) [Compound 59]	–	logP 4.21^[a]; [M + H]^+ = 346	–
CC(C)(C)C(O)(CCc1ccc([N+](=O)[O-])cc1)c1cncs1 (centres unmarked) [Compound 75]	–	logP 2.98^[a]; [M + H]^+ = 321	–
COc1ccc(CCC(O)(c2cncs2)C(C)(C)C)cc1 (centres unmarked) [Compound 73]	78%	logP 2.94^[a]; [M + H]^+ = 306	–
CC(C)(C)C(O)(COc1ccc(F)cc1)Cc1cncs1 (centres unmarked) [Compound 66]	–	logP 3.16^[a]; [M + H]^+ = 310	–
CC1(C(O)(COc2cccc(Br)c2)c2cncs2)CC1 (centres unmarked) [Compound 27]	93%	logP 3.24^[a]; [M + H]^+ = 354, 356	–
CC(C)(/C=C/Cl)C(O)(COc1ccc(Cl)cc1)c1cncs1 (centres unmarked) [Compound 54]	95%	logP 3.67^[a]; [M + H]^+ = 358	–
CC(C)C(O)(COc1ccc(I)cc1)c1cncs1 (centres unmarked) [Compound 21]	85%	–	–
CC(=O)c1ccc(-c2ccc(OCC(O)(c3cncs3)C(C)(C)C)cc2)cc1 (centres unmarked) [Compound 31]	100%	–	–
CC(C)(C)C(O)(COc1ccc(F)cc1)Cc1cnc(Cl)s1 (centres unmarked) [Compound 63]	–	logP 4.20^[a]; [M + H]^+ = 344	–
CC(C)C(O)(COc1ccc(Cl)cc1)c1cncs1 (centres unmarked) [Compound 23]	80%	–	–
CC(C)(C)C(O)(COc1ccc(-c2ccccc2)cc1)c1cncs1 (centres unmarked) [Compound 50]	100%	logP 4.03^[a]; [M + H]^+ = 354	–
CC1(C(O)(COc2ccccc2I)c2cncs2)CC1 (centres unmarked) [Compound 55]	–	logP 3.33^[a]; [M + H]^+ = 402	–
CC(C)(C)C(O)(COc1ccc(F)cc1)c1cncs1 (centres unmarked) [Compound 42]	94%	logP 2.91^[a]; [M + H]^+ = 296	efficacy [2]: 100%; efficacy (Puccinia triticina): 89%
CC(C)(C)C(O)(COc1ccc(Cl)cc1)c1cnc(S)s1 (centres unmarked) [Compound 12]	98%	–	efficacy [2]: 89%; efficacy (Leptosphaeria nodorum): 86%; chromatographic logP [1]: 3.06
